Measurements published in patent publication US10208030B2, “GPR119 agonist compounds” (Mankind Pharma Ltd., priority 2016, dated 2019).

Legend:
hGPR119 = target: T1, hGPR119 (Homo sapiens, UniProt Q8TDV5); test: In vitro cyclic AMP assay (Cisbio HTRF) in CHO-hGPR119 cells; assay type: cell-based; conditions: cAMP; for activation at 1 µM: 1 h, 60 min, read-out: Induction (% induction at 1 μM); for EC50: class symbols, legend not given
T1 construct: expressed in transfected cells; host or cells: CHO cells (CHO-hGPR119)
T1 sequence (Q8TDV5 1-335): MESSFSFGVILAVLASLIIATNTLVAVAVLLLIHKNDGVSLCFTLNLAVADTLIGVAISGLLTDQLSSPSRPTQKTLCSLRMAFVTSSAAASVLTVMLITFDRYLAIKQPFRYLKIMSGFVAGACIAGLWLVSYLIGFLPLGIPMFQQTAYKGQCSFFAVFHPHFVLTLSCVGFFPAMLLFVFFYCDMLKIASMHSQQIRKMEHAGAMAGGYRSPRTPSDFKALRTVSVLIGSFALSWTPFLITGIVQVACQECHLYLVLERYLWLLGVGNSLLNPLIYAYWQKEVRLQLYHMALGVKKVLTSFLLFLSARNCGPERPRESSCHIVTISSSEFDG
Method in brief: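 Cells plated at 5000/well and exposed to test compound dose series for 60 min at room temperature with 1 mM IBMX and 0.5% DMSO (final). Lysis with anti-cAMP antibody/d2-cAMP detection reagents, 1 h at room temperature; HTRF read at 665/620 nm (337 nm excitation); EC50 from concentration-response.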

Male C57BL/6 mice = test: Oral glucose tolerance test in C57BL/6 mice; assay type: in vivo; conditions: 3 mpk and 10 mpk oral
Experimental: (§1) Male C57BL/6 mice (8-10 weeks) were grouped based on basal glucose levels and animals were fasted for 16 hours. Glucose level of each animal was estimated in blood collected from tail vein before animals were dosed orally with 0.5% Tween 80 and 0.5% NaCMC (vehicle control) and compounds at 3 and 10 mpk (n=5). After 30 minutes of compound dosing, blood glucose was again estimated and 2 g/kg/10 ml (20%) of Glucose solution was administered orally to all the animals. Blood glucose was estimated at 15, 30, 60, 90 and 120 minutes time points after glucose administration. Accu-Check active blood glucose meter was utilised for estimation of blood from tail vein.
Glucose reduction observed in animals treated with compounds of present invention is represented in terms of % AUC reduction. A greater glucose reduction in oral glucose tolerance test indicates the compound's efficacy in this rodent species.

Male SD rats = test: Oral glucose tolerance test in Sprague-Dawley rats; assay type: in vivo; conditions: 3 mpk and 10 mpk oral
Experimental: as §1, with “SD rats” for “C57BL/6 mice”
Glucose reduction observed in animals treated with GPR119 agonists is represented in terms of % AUC reduction. A greater glucose reduction in oral glucose tolerance test indicates the compound's efficacy in this rodent species.

Row | Structure (SMILES) | activation at 1 µM (hGPR119) [%] | EC50 (hGPR119) | glucose reduction (% AUC reduction) in oral glucose tolerance test (Male C57BL/6 mice) | glucose reduction (% AUC reduction) in oral glucose tolerance test (Male SD rats)
1 | CCCc1cnc(N2CCC(C(C)Oc3nn4cc(-c5ccc(S(C)(=O)=O)nc5)nc4s3)CC2)nc1 (stereo in doubt) [Compound 1081, 2-((S)-1-(1-(5-propylpyrimidin-2-yl)piperidin-4-yl)ethoxy)-6-(6-(methylsulfonyl)pyridin-3-yl)imidazo[2,1-b][1,3,4]thiadiazole] | 66 | A++ | significant dose dependent glucose reduction | –
2 | CC(Oc1nn2cc(-c3ccc(S(C)(=O)=O)cc3F)nc2s1)C1CCN(c2ncc(Cl)cn2)CC1 (stereo in doubt) [Compound 1090, 2-((S)-1-(1-(5-chloropyrimidin-2-yl)piperidin-4-yl)ethoxy)-6-(2-fluoro-4-(methylsulfonyl)phenyl)imidazo[2,1-b][1,3,4]thiadiazole] | 76 | A++ | significant dose dependent glucose reduction | significant dose dependent glucose reduction
3 | CC(C)c1noc(N2CCC([C@@H](C)Oc3nn4cc(-c5ccncc5)nc4s3)CC2)n1 [Compound 1059, (R)-3-isopropyl-5-(4-(1-((6-(pyridin-4-yl)imidazo[2,1-b][1,3,4]thiadiazol-2-yl)oxy)ethyl)piperidin-1-yl)-1,2,4-oxadiazole] | 68 | A++ | significant dose dependent glucose reduction | significant dose dependent glucose reduction
4 | CCCc1cnc(N2CCC([C@H](C)Oc3nn4cc(-c5ccc(S(C)(=O)=O)cc5)nc4s3)CC2)nc1 [Compound 1067, (S)-6-(4-(methylsulfonyl)phenyl)-2-(1-(1-(5-propylpyrimidin-2-yl)piperidin-4-yl)ethoxy)imidazo[2,1-b][1,3,4]thiadiazole] | 55 | A++ | significant dose dependent glucose reduction | significant dose dependent glucose reduction
5 | CC(C)c1noc(N2CCC([C@H](C)Oc3nn4cc(-c5cnc(Cl)nc5)nc4s3)CC2)n1 [Compound 1071, (S)-5-(4-(1-((6-(2-chloropyrimidin-5-yl)imidazo[2,1-b][1,3,4]thiadiazol-2-yl)oxy)ethyl)piperidin-1-yl)-3-isopropyl-1,2,4-oxadiazole] | 75 | A++ | significant dose dependent glucose reduction | significant dose dependent glucose reduction
6 | CC(C)c1noc(N2CCC([C@H](C)Oc3nn4cc(-c5cnc(S(C)(=O)=O)nc5)nc4s3)CC2)n1 [Compound 1072, (S)-3-isopropyl-5-(4-(1-((6-(2-(methylsulfonyl)pyrimidin-5-yl)imidazo[2,1-b][1,3,4]thiadiazol-2-yl)oxy)ethyl)piperidin-1-yl)-1,2,4-oxadiazole] | 72 | A++ | significant dose dependent glucose reduction | significant dose dependent glucose reduction
7 | CCc1cnc(N2CCC([C@H](C)Oc3nn4cc(-c5ccc(S(C)(=O)=O)cc5F)nc4s3)CC2)nc1 [Compound 1086, 2-((S)-1-(1-(5-ethylpyrimidin-2-yl)piperidin-4-yl)ethoxy)-6-(2-fluoro-4-(methylsulfonyl)phenyl)imidazo[2,1-b][1,3,4]thiadiazole] | 87 | A++ | significant dose dependent glucose reduction | significant dose dependent glucose reduction
8 | CC(C)c1noc(N2CCC([C@@H](C)Oc3nn4cc(-c5cnc(Cl)cn5)nc4s3)CC2)n1 [Compound 1087, 2-((R)-1-(1-(3-isopropyl-1,2,4-oxadiazol-5-yl)piperidin-4-yl)ethoxy)-6-(5-chloropyrazin-2-yl)imidazo[2,1-b][1,3,4]thiadiazole] | 75 | – | significant dose dependent glucose reduction | significant dose dependent glucose reduction
9 | CC(C)c1noc(N2CCC([C@@H](C)Oc3nn4cc(-c5ccc(S(C)(=O)=O)cc5F)nc4s3)CC2)n1 [Compound 1088, 2-((R)-1-(1-(3-isopropyl-1,2,4-oxadiazol-5-yl)piperidin-4-yl)ethoxy)-6-(2-fluoro-4-(methylsulfonyl)phenyl)imidazo[2,1-b][1,3,4]thiadiazole] | 73 | A++ | significant dose dependent glucose reduction | –
10 | CC(C)c1noc(N2CCC(C(C)Oc3nn4cc(-c5ccc(S(C)(=O)=O)cc5C(F)(F)F)nc4s3)CC2)n1 (centres unmarked) [Compound 1091, 2-(1-(1-(3-isopropyl-1,2,4-oxadiazol-5-yl)piperidin-4-yl)ethoxy)-6-(2-(trifluoromethyl)-4-(methylsulfonyl)phenyl)imidazo[2,1-b][1,3,4]thiadiazole] | 33 | – | – | significant dose dependent glucose reduction
11 | CC(C)OC(=O)N1CCC(C(C)Oc2nn3cc(-c4ccc(S(C)(=O)=O)cc4F)nc3s2)CC1 (centres unmarked) [Compound 1101, Isopropyl 4-(1-(6-(2-fluoro-4-(methylsulfonyl)phenyl)imidazo[2,1-b][1,3,4]thiadiazol-2-yloxy)ethyl)piperidine-1-carboxylate] | 84 | – | significant dose dependent glucose reduction | significant dose dependent glucose reduction
12 | CC(C)OC(=O)N1CCC([C@H](C)Oc2nn3cc(-c4ccc(S(C)(=O)=O)cc4F)nc3s2)CC1 [Compound 1108, isopropyl 4-((S)-1-(6-(2-fluoro-4-(methylsulfonyl)phenyl)imidazo[2,1-b][1,3,4]thiadiazol-2-yloxy)ethyl)piperidine-1-carboxylate] | 70 | A++ | significant dose dependent glucose reduction | significant dose dependent glucose reduction
13 | CNS(=O)(=O)c1ccc(-c2cn3nc(OC(C)C4CCN(c5nc(C(C)C)no5)CC4)sc3n2)c(F)c1 (centres unmarked) [Compound 1109, 3-fluoro-4-(2-(1-(1-(3-isopropyl-1,2,4-oxadiazol-5-yl)piperidin-4-yl)ethoxy)imidazo[2,1-b][1,3,4]thiadiazol-6-yl)-N-methylbenzenesulfonamide] | 55 | – | significant dose dependent glucose reduction | significant dose dependent glucose reduction
14 | CC(C)c1noc(N2CCC(Nc3nc(-c4ccc(S(C)(=O)=O)nc4)ns3)CC2)n1 [Compound 1126, 1-(3-isopropyl-1,2,4-oxadiazol-5-yl)-N-(3-(6-(methylsulfonyl)pyridin-3-yl)-1,2,4-thiadiazol-5-yl)piperidin-4-amine] | 7 | – | – | –
15 | CC(C)c1noc(N2CCC(N(C)c3nc(-c4ccc(S(C)(=O)=O)nc4)ns3)CC2)n1 [Compound 1127, 1-(3-isopropyl-1,2,4-oxadiazol-5-yl)-N-methyl-N-(3-(6-(methylsulfonyl)pyridin-3-yl)-1,2,4-thiadiazol-5-yl)piperidin-4-amine] | 4 | – | – | –
